Assays:
Type in all cases: in vivo, rats
[1] = organ weight after Taxol administration; conditions: day 15, contrast group (Taxol) vs control group, experimental group even lower than control group
Excerpt: Cancer pain is a kind of pain caused by cancer, which is most common symptoms and most feared symptoms for patients. If the pain is not controlled properly, the life quality of patients would be affected severely. To understand the effect of presented pharmaceutical composition on cancer pain, the experiment was following: 6 to 7 week-old female rats (20-24 grams, ICR) were divided into control group, contrast group and experimental group. In control group, rats were not gave any medication. In contrast group and experimental group, rats were administered Taxol® (20 mg/kg) from day 0 to day 5 to induce the pain. Besides, the experimental group were also treated with presented pharmaceutical composition for 7 days before administered Taxol®, and continuously treated for 14 days after administered Taxol®. Therefore, the total days of presented pharmaceutical composition administered in experimental group is 21 days. The administered method is twice daily, and the dosage was 0.5-1.67 uL/mouse. On day 3, 7 and 14 during the drug administration, the tail flick latency (Tail-Flick Unit 37360) was conducted. The tail flick latency is used to evaluate the degree of change of pain threshold by heating the tail of rat through infrared.
Organ hypertrophy is common side effect induced by chemotherapy drugs. To understand the impact of the presented pharmaceutical compositions on organs, the female rats of example 5 were sacrificed on day 15. The heart, liver, spleen and kidney acquired from rats were weighted respectively.

[2] = tail flick latency after Taxol-induced pain; conditions: Taxol 20 mg/kg day 0 to day 5; day 3, day 7 and day 14; composition 21 days twice daily, vs contrast group
Protocol: To understand the effect of presented pharmaceutical composition on cancer pain, the experiment was following: 6 to 7 week-old female rats (20-24 grams, ICR) were divided into control group, contrast group and experimental group. […] In contrast group and experimental group, rats were administered Taxol® (20 mg/kg) from day 0 to day 5 to induce the pain. Besides, the experimental group were also treated with presented pharmaceutical composition for 7 days before administered Taxol®, and continuously treated for 14 days after administered Taxol®. Therefore, the total days of presented pharmaceutical composition administered in experimental group is 21 days. The administered method is twice daily, and the dosage was 0.5-1.67 uL/mouse. On day 3, 7 and 14 during the drug administration, the tail flick latency (Tail-Flick Unit 37360) was conducted. The tail flick latency is used to evaluate the degree of change of pain threshold by heating the tail of rat through infrared.

white blood cells = conditions: for the numbers of white blood cell, Day 0 before chemotherapy: day 0 before cyclophosphamide, experimental group pretreated 5 days with composition, disease and contrast groups not yet treated; for the numbers of white blood cell, Day 4 after chemotherapy: day 4 after cyclophosphamide, G-CSF on day 2 to day 4, composition twice daily 0.5-1.67 uL/mouse; for the numbers of white blood cell, Day 7 after chemotherapy: day 7 after cyclophosphamide; for the numbers of white blood cell, Day 10 after chemotherapy: day 10 after cyclophosphamide; for numbers of white blood cell (in words): disease group vs normal group, contrast group on day 7 and day 10, experimental group vs contrast group after chemotherapy
Excerpt: Furthermore, a common side effect of chemotherapy is a drop in the number of white blood cells, which leads to an increased risk of getting an infection. Currently, granulocyte colony stimulating factor (G-CSF) treatment can make white blood cell levels go up faster. However, patients may have one or more side effects of using G-CSF. To understand the effect of present pharmaceutical composition on white blood cells, cyclophosphamide-induced leukopenia experiment execute as follows: 6 to 7 week-old female rats (20-24 grams, ICR) were divided into normal group, disease group, contrast group and experimental group. In normal group, rats were not gave any medication. In disease, contrast and experimental group, rats were administered cyclophosphamide on day 0 to induce leukopenia. Besides, in contrast group, rats were also administered G-CSF on day 2 to day 4. In experimental group, rats were treated with presented pharmaceutical composition for 5 days before administered cyclophosphamide, and continuously treated for 10 days after administered cyclophosphamid. Therefore, the total days of presented pharmaceutical composition administered in experimental group is 15 days. The administered method of presented pharmaceutical composition is twice daily, and the dosage was 0.5-1.67 uL/mouse. The rats in each group were phlebotomized on day 0 before chemotherapy, and on day 4, day 7 and day 10 after chemotherapy.

Molecule | heart weight ([1]; FIG. 8A) | liver weight ([1]; FIG. 8B) | spleen weight ([1]; FIG. 8C) | kidney weight ([1]; FIG. 8D) | tail flick latency [2] | the numbers of white blood cell, Day 0 before chemotherapy (white blood cells) | the numbers of white blood cell, Day 4 after chemotherapy (white blood cells) | the numbers of white blood cell, Day 7 after chemotherapy (white blood cells) | the numbers of white blood cell, Day 10 after chemotherapy (white blood cells) | numbers of white blood cell (in words) (white blood cells)
CC(=O)O[C@H]1C(=O)[C@@]2(C)[C@H]([C@H](OC(=O)c3ccccc3)[C@]3(O)C[C@H](OC(=O)[C@H](O)[C@@H](NC(=O)c4ccccc4)c4ccccc4)C(C)=C1C3(C)C)[C@]1(OC(C)=O)CO[C@@H]1C[C@@H]2O [Taxol®] | significantly heavier | significantly heavier | significantly heavier | significantly heavier | lower | – | – | – | – | –
O=P1(N(CCCl)CCCl)NCCCO1 (stereo not drawn) [cyclophosphamide] | – | – | – | – | – | 887 | 56 | 333 | 772 | extremely reduced
G-CSF: granulocyte colony stimulating factor, given day 2 to day 4 after cyclophosphamide; contrast group of leukopenia experiment (protein, UniProt P09919 31-207, looked up) Granulocyte …: TPLGPASSLPQSFLLKCLEQVRKIQGDGAALQEKLVSECATYKLCHPEELVLLGHSLGIPWAPLSSCPSQALQLAGCLSQLHSGLFLYQGLLQALEGISPELGPTLDTLQLDVADFATTIWQQMEELGMAPALQPTQGAMPAFASAFQRRAGGVLVASHLQSFLEVSYRVLRHLAQP | – | – | – | – | – | 843 | 51 | 528 | 768 | increase
